Consider 15 compounds from patent EP0565377B1, “Therapeutic agents for use in the treatment of Parkinson's Disease” (Kyowa Hakko Kogyo Co., Ltd., priority 1992, dated 1993).

For data set [1], the system named is Parkinson's Disease Model in Mouse. Briefly: Effect on locomotor activity of Parkinson's disease model in mouse (MPTP-treated mice, Automex-II horizontal activity). Format: in vivo, male C57BL/6 mice. Here is the method:
1-Methyl-4-phenyl-1,2,3,6-tetrahydropyridine (MPTP) causes symptoms of Parkinson's disease in humans [Science, 219, 979 (1983)]. It is reported that an experimental Parkinson's disease model was obtained by administering MPTP to mice [Science, 224, 1451 (1984)]. If a compound is effective on the experimental Parkinson's disease model in mouse, the compound can be expected to have a therapeutic effect on Parkinson's disease.
The experiment was performed by using several groups of 7-weeks-old male C57BL/6 mice (weighing 20 to 21 g, Japan SLC), each group consisting of 8 mice. MPTP (Aldrich Chemical Co., Inc.) dissolved in a physiological saline solution (Otsuka Pharmaceutical Co., Ltd.) was intraperitoneally administered to each mouse once a day for five consecutive days at a dose of 30 mg/kg. A test compound was suspended in injectable distilled water (Otsuka Phamaceutical Co., Ltd.) containing Tween 80 [polyoxyethylene (20) sorbitan monooleate]. L-DOPA (Kyowa Hakko Kogyo Co., Ltd.) was suspended in 0.3% CMC (sodium carboxylmethylcellulose). Thirty minutes after the final MPTP administration, the test compound suspensions and the control suspension [injectable distilled water (Otsuka Pharmaceutical Co., Ltd.) containing Tween 80] containing no test compound were orally administered to separate groups of the mice (0.1 ml per 10 g of body weight). The amount of active movements (horizontal activity) of each mouse was measured by using Automex-II (Columbus Instruments International Corp.) for the period of 30 minutes starting 30 minutes after the administration of the test compound. The effect of the compounds was evaluated by comparing the average counts of the active movements of the test compound-administered groups with those of the control groups. A significant difference test was performed by using Student's t-test.

Data set [2] concerns Haloperidol-Induced Catalepsy. Nature of the data set: Effect on haloperidol-induced catalepsy. Format: in vivo, male ddY mice. The following applies: Table 4-1, test compound 10 mg/kg orally; for inhibition in vivo at 10 mg/kg: Mus musculus, po, 1 h, rate of decrease in total score based on control group, read-out: Remission Rate (%); for Number of the Animals Showing Remission: of 5 mice, catalepsy score not more than 4 points; for Total Score: total catalepsy score of 5 mice (25 points at the full), 0.3% CMC control 25. Here is the method: The experiment was performed by using several groups of 5-weeks-old male ddY mice (weighing 22 to 24 g, Japan SLC), each group consisting of 5 mice. Haloperidol (Janssen Pharmaceutica) suspended in 0.3% CMC was intraperitoneally administered to each mouse at a dose of 1.0 mg/kg. Test compounds were suspended in 0.3% CMC or in injectable distilled water (Otsuka Pharmaceutical Co., Ltd.) containing Tween 80. L-DOPA (Kyowa Hakko Kogyo Co., Ltd.) and benserazide hydrochloride (Kyowa Hakko Kogyo Co., Ltd.) were suspended in 0.3% CMC. One hour after the haloperidol administration, the test compound suspensions and the control suspension [0.3% CMC or injectable distilled water (Otsuka Pharmaceutical Co., Ltd.) containing Tween 80] containing no test compound were orally administered to separate groups of the mice (0.1 ml per 10 g of body weight). One hour after the administration of the test compound, the forelimbs of each mouse and subsequently the hindlimbs of the same mouse were placed on a 4.5 cm-high, 1.0 cm-wide bar and catalepsy was estimated. All of the test compounds were orally administered at a dose of 10 mg/kg, and L-DOPA (100 mg/kg) and benserazide (25 mg/kg) were intraperitoneally administered together as a control experiment. The catalepsy score and the standard of judgment are shown below.
The effect of the compounds was evaluated by the total of the catalepsy scores of five mice in each group (25 points at the full). The groups wherein the total score was not more than 20 points were estimated to be effective. The number of the animals showing remission against catalepsy is the number of the mice for which the catalepsy score was not more than 4 points.

A further data set has as its system dd-strain male mice. Nature of the data set: Acute toxicity test (minimum lethal dose, oral). Format: in vivo. The note with it: oral administration, mortality seven days after administration, three mice per group. Here is the method:
Test compounds were orally administered to groups of dd-strain male mice weighing 20±1 g, each group consisting of three mice. Seven days after the administration, minimum lethal dose (MLD) of each compound was determined by observing the mortality.

[3] abbreviates: Table 3-1, test compound 10 mg/kg orally, 30 min count starting 30 min after dosing, normal control 1875 ± 77.7, MPTP control 207 ± 85.5.
The mark [4] stands for this setting: Table 3-5, test compound 40 mg/kg orally, normal control 2252 ±210.1, MPTP control 18 ± 8.4.

On to `CCCn1c(=O)c2c(nc(/C=C/c3ccc(OC)c(OC)c3)n2C)n(CCC)c1=O` [Compound 1, (E)-8-(3,4-dimethoxystyryl)-7-methyl-1,3-dipropylxanthine], for which, in data set [1] (setting [3]), the “Amount of Active Movements (average count ± S.E.M)” value (shortened to “Amount of Active Movements”) stood at 628 ±174.5 count. Also, in data set [2], the inhibition in vivo at 10 mg/kg was 48%, the “Number of the Animals Showing Remission” value was 5 and the “Total Score” value is 13 points. The “MLD” value with dd-strain male mice is listed as greater than 300 mg/kg.
As to `CCn1c(=O)c2c(nc(/C=C/c3cc(OC)c(OC)c(OC)c3)n2C)n(CC)c1=O` [Compound 4, (E)-1,3-diethyl-7-methyl-8-(3,4,5-trimethoxystyryl)xanthine], in data set [1] (Table 3-2, test compound 10 mg/kg orally, normal control 2185 ±156.2, MPTP control 38 ± 24.2), the “Amount of Active Movements” value was determined as 961 ±164.7 count. In data set [2], the inhibition in vivo at 10 mg/kg amounted to 20%, the “Number of the Animals Showing Remission” value stood at 4 and the “Total Score” value turned out to be 20 points. Further, the “MLD” value in the data set on dd-strain male mice was greater than 300 mg/kg.
As for `CCCn1c(=O)c2c(nc(/C=C/c3ccccc3)n2C)n(CCC)c1=O` [Compound 3, (E) -7-methyl-1,3-dipropyl-8-styrylxanthine], the “Amount of Active Movements” value in data set [1] (Table 3-2, test compound 40 mg/kg orally, normal control 2185 ±156.2, MPTP control 38 ± 24.2) was 228 ± 82.6 count. Further, in data set [2], the inhibition in vivo at 10 mg/kg came out at 20%, the “Number of the Animals Showing Remission” value stood at 4 and the “Total Score” value is 20 points. Moreover, the “MLD” value with dd-strain male mice is recorded as greater than 300 mg/kg.
With `C=CCn1c(=O)c2nc(/C=C/c3cc(OC)c(OC)c(OC)c3)[nH]c2n(CC=C)c1=O` [Compound 11, (E)-1,3-diallyl-8-(3,4,5-trimethoxystyryl) xanthine], in data set [1] (setting [4]), the “Amount of Active Movements” value is listed as 20 ± 7.1 count. Further, in data set [2], the inhibition in vivo at 10 mg/kg is 20%, the “Number of the Animals Showing Remission” value is 3 and the “Total Score” value came to 20 points. Also, in the data set on dd-strain male mice, the “MLD” value is recorded as greater than 300 mg/kg.
On to `CCCCn1c(=O)c2c(nc(/C=C/c3cc(OC)c(OC)c(OC)c3)n2C)n(CCCC)c1=O` [Compound 8, (E)-1,3-dibutyl-7-methyl-8-(3,4,5-trimethoxystyryl)xanthine], for which, in data set [1] (setting [4]), the “Amount of Active Movements” value stood at 43 ± 28.3 count. Further, in the data set with dd-strain male mice, the “MLD” value is greater than 300 mg/kg.
Regarding `C=CCn1c(=O)c2c(nc(/C=C/c3cc(OC)c(OC)c(OC)c3)n2C)n(CC=C)c1=O` [Compound 7, (E)-1,3-diallyl-7-methyl-8-(3,4,5-trimethoxystyryl)xanthine], in data set [2], the inhibition in vivo at 10 mg/kg was 48%, the “Number of the Animals Showing Remission” value stood at 4 and the “Total Score” value came out at 13 points. Besides, the “MLD” value in the data set with dd-strain male mice is reported as greater than 300 mg/kg.
With `COc1cc(/C=C/c2nc3c([nH]2)c(=O)n(C)c(=O)n3C)cc(OC)c1OC` [Compound 10, (E)-8-(3,4,5-trimethoxystyryl)theophylline], the “Amount of Active Movements” value in data set [1] (setting [4]) came out at 32 ± 21.2 count. In the data set with dd-strain male mice, the “MLD” value was greater than 300 mg/kg.
Take `COc1cc(/C=C/c2nc3c(c(=O)n(C)c(=O)n3C)n2C)cc(OC)c1OC` [Compound 2, (E)-8-(3,4,5-trimethoxystyryl)caffeine]: the “Amount of Active Movements” value in data set [1] (setting [3]) is 1134 ±267.0 count. For the same compound, in data set [2], the inhibition in vivo at 10 mg/kg was 56%, the “Number of the Animals Showing Remission” value is 5 and the “Total Score” value worked out at 11 points. In addition, the “MLD” value with dd-strain male mice is reported as greater than 300 mg/kg.
On to `CCCn1c(=O)c2nc(/C=C/c3ccc(OC)c(OC)c3OC)[nH]c2n(CCC)c1=O` [Compound 20, (E)-1,3-dipropyl-8-(2,3,4-trimethoxystyryl)xanthine], for which, in data set [2], the inhibition in vivo at 10 mg/kg came out at 24%, the “Number of the Animals Showing Remission” value is given as 3 and the “Total Score” value stood at 19 points. In addition, the “MLD” value in the data set on dd-strain male mice is recorded as greater than 300 mg/kg.
As to `CCCn1c(=O)c2c(nc(/C=C/c3ccc4c(c3)OCO4)n2C)n(CCC)c1=O` [Compound 19, (E)-7-methyl-8-(3,4-methylenedioxystyryl)-1,3-dipropylxanthine], in data set [2], the inhibition in vivo at 10 mg/kg is 24%, the “Number of the Animals Showing Remission” value is 3 and the “Total Score” value is on record as 19 points. Further, the “MLD” value in the data set with dd-strain male mice is recorded as greater than 300 mg/kg.
Taken in the same sequence, the figures for `CCCn1c(=O)c2[nH]c(/C=C/c3ccc4c(c3)OCO4)nc2n(CCC)c1=O` [Compound 18, (E)-8-(3,4-methylenedioxystyryl)-1,3-dipropylxanthine] were 20%, 4, 20 points and greater than 300 mg/kg.
Regarding `CCCn1c(=O)c2nc(/C=C/c3cc(OC)c(OC)c(OC)c3)[nH]c2n(CCC)c1=O` [Compound 9, (E)-1,3-dipropyl-8-(3,4,5-trimethoxystyryl) xanthine], in data set [1] (setting [4]), the “Amount of Active Movements” value amounted to 41 ± 18.0 count. Besides, the “MLD” value in the data set with dd-strain male mice is greater than 300 mg/kg.
Take `CCCn1c(=O)c2c(nc(/C=C/c3ccc(OC)cc3)n2C)n(CCC)c1=O` [Compound 6, (E)-8-(4-methoxystyryl)-7-methyl-1,3-dipropylxanthine]: in data set [2], the inhibition in vivo at 10 mg/kg was 24%, the “Number of the Animals Showing Remission” value came out at 3 and the “Total Score” value worked out at 19 points. Also, the “MLD” value in the data set on dd-strain male mice is greater than 300 mg/kg.
On the same counts, the results for `CCCn1c(=O)c2c(nc(/C=C/c3ccc(OC)c(C)c3OC)n2C)n(CCC)c1=O` [Compound 15, (E)-8-(2,4-dimethoxy-3-methylstyryl)-7-methyl-1,3-dipropylxanthine] are 24%, 4, 19 points and greater than 300 mg/kg.
On the same counts, the results for `CCCn1c(=O)c2[nH]c(/C=C/c3ccc(OC)cc3OC)nc2n(CCC)c1=O` [Compound 24, (E)-8-(2,4-dimethoxystyryl)-1,3-dipropylxanthine] are 24%, 4, 19 points and greater than 100 mg/kg.
